Series [1] deals with MDA-MB-435. To be noted: cited from earlier work.
Series [2] has as its system SK-OV-3 (ovarian carcinoma) cell line. The note with it: cited from earlier work.
Series [3] relates to SKVLB-1. To be noted: cited from earlier work; for Resistance factor (SKVLB-1/SK-OV-3): ratio of IC50 SKVLB-1/SK-OV-3.
The subject of series [4] is A10 cells. The note with it: 2-20 μM; cited from earlier work.
Series [5] relates to KB cells. To be noted: cited from earlier work.
Series [6] deals with human breast carcinoma MDA-MB-435. Description: sulforhodamine assay, proliferation of human tumor cells, MDA-MB-435. The series is classed as cell-based. To be noted: MDA-MB-435, sulforhodamine assay. Here is the method: Laulimalide analogs disclosed herein were evaluated for the ability to inhibit the proliferation of human tumor cells using the sulforhodamine assay format (Mooberry et al., Cancer Research, 1999, 59, 653-660). The two cells lines selected were the human breast carcinoma MDA-MB-435 and the corresponding MDR cell line NCI/ADR, which overexpresses the PGP efflux pump protein.

In series [7] the test system is human umbilical vein endothelial cells (HUVEC). To be noted: read-out: IC50, inhibition of HUVEC proliferation; cited from earlier work.
The conditions of series [8]: 0.01 N solution of HCl in acetone; cited from earlier work.
Series [9] has as its system purified tubulin. The note with it: cited from earlier work.
For series [10], the system named is tubulin polymer. The note with it: radiolabeled Taxol; cited from earlier work.
The subject of series [11] is human umbilical vein endothelial cells (HUVEC). The note with it: cited from earlier work.
In series [12] the test system is MDA-MB-435 (human breast adenocarcinoma) cell line. The note with it: cited from earlier work.
[13] abbreviates: SKVLB-1 (P-gp overexpressing MDR).

The values below come from patent US20080227851A1, “L[…] L[…]” (priority 2007, published 2008).

Values after ≈ are worked out from the molar mass of the structure shown.

Regarding `C=C1C[C@H](C)C[C@@H]2CC=C[C@@H](C/C=C\C(=O)O[C@H]3C[C@@H](O[C@H]3/C=C/[C@@H]3CC(C)=CCO3)[C@@H](O)[C@@H](O)C1)O2` [Isolaulimalide, isolaulimalide], the values for the IC50 in series [1], in series [2] and in series [3] (setting [13]) were 1970 ± 97 nM, 2570 ± 290 nM and 2650 ± 1380 nM, respectively. The “Resistance factor (SKVLB-1/SK-OV-3)” value in series [3] is reported as 1.03. Besides, in series [4], the microtubule bundling result is on record as “no microtubule bundles were observed”. Besides, the “IC50, cytotoxic to KB cells” value in series [5] is more than 0.2 µg/mL.
Turning to `C=C1C[C@H](C)C[C@@H]2CC=C[C@@H](C/C=C\C(=O)O[C@H]([C@@H](O)/C=C/[C@@H]3CC(C)=CCO3)C[C@@H]3O[C@H]3[C@@H](O)C1)O2` [Laulimalide, laulimalide], the IC50 is 5.7 ± 0.6 nM in series [6]; 5.73 ± 0.58 nM in series [1]; 11.5 ± 0.53 nM in series [2]; 1210 ± 490 nM in series [3] (setting [13]); 4 nM in series [7]. Moreover, the “Resistance factor (SKVLB-1/SK-OV-3)” value in series [3] is 105. Further, the “time to complete acid-catalyzed decomposition to isolaulimalide” value in [8] was “four”. Also, the microtubule bundling result in series [4] was “caused bundling of microtubules similar to that induced by Taxol”. For the same compound, in [9], the “polymerization of purified tubulin” value is listed as “caused the polymerization of purified tubulin”. Also, in [10], the “competition with Taxol binding to tubulin polymer” value is “does not compete with Taxol”. Further, the “concentration inhibiting tubule formation and VEGF-induced HUVEC migration” value in series [11] is on record as “subnanomolar”. The cell cycle arrest result in [12] is reported as “cell cycle arrest at the G2/M transition”. For the same compound, the “IC50, cytotoxic to KB cells” value in [5] was 0.015 µg/mL (≈ 0.0291 µM).
Turning to `CC(=O)O[C@H]1C(=O)[C@@]2(C)[C@H]([C@H](OC(=O)c3ccccc3)[C@]3(O)C[C@H](OC(=O)[C@H](O)[C@@H](NC(=O)c4ccccc4)c4ccccc4)C(C)=C1C3(C)C)[C@]1(OC(C)=O)CO[C@@H]1C[C@@H]2O` [Taxol, paclitaxel], the results for the IC50 in series [1], in [2] and in series [3] (setting [13]) were 1.02 ± 0.25 nM, 1.71 ± 1.07 nM and more than 100000 nM, respectively. For the same compound, the “IC50 (nM)” value in series [3] (setting [13]) is recorded as “completely ineffective”. Besides, in series [3], the “Resistance factor (SKVLB-1/SK-OV-3)” value is given as more than 58480.
